Legend:
Type in all cases: in vivo
[1] = system: barnyardgrass (Echinochloa crus-galli); assay: Test C greenhouse herbicide test, pre- and postemergence
Procedure, shortened: (§1)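 Percent-control ratings (0 none, 100 complete) came from visual comparison with controls held alongside in the greenhouse for 13–15 d. Treatments covered soil application at sowing and foliar application to young plants 2–18 cm tall.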

[2] = system: blackgrass (Alopecurus myosuroides); assay: as above
Procedure, shortened: as §1

corn (Zea mays) = assay: as above
Procedure, shortened: as §1

[3] = system: crabgrass, large (large crabgrass, Digitaria sanguinalis); assay: as above; conditions: for Plant response rating, Crabgrass, Large: Postemergence; for Crabgrass, Large plant response rating: postemergence, 62 g ai/ha
Procedure, shortened: as §1

[4] = system: foxtail, giant (giant foxtail, Setaria faberii); assay: as above; conditions: for Plant response rating, Foxtail, Giant: Postemergence; for Foxtail, Giant plant response rating: postemergence, 62 g ai/ha
Procedure, shortened: as §1

[5] = system: johnsongrass (Sorghum halepense); assay: as above; conditions: for Plant response rating, Johnsongrass: Postemergence; for Johnsongrass plant response rating: postemergence, 62 g ai/ha
Procedure, shortened: as §1

[6] = system: lambsquarters (Chenopodium album); assay: as above; conditions: for Plant response rating, Lambsquarters: Postemergence; for Lambsquarters plant response rating: postemergence, 62 g ai/ha
Procedure, shortened: as §1

[7] = system: morningglory (Ipomoea coccinea); assay: as above; conditions: for Plant response rating, Morningglory: Postemergence; for Morningglory plant response rating: postemergence, 62 g ai/ha
Procedure, shortened: as §1

[8] = system: pigweed (Amaranthus retroflexus); assay: as above; conditions: for Plant response rating, Pigweed: Postemergence; for Pigweed plant response rating: postemergence, 62 g ai/ha
Procedure, shortened: as §1

[9] = system: ragweed (common ragweed, Ambrosia elatior); assay: as above; conditions: for Plant response rating, Ragweed: Postemergence; for Ragweed plant response rating: postemergence, 62 g ai/ha
Procedure, shortened: as §1

[10] = system: ryegrass, Italian (Italian ryegrass, Lolium multiflorum); assay: as above; conditions: for Plant response rating, Ryegrass, Italian: Postemergence; for Ryegrass, Italian plant response rating: postemergence, 62 g ai/ha
Procedure, shortened: as §1

soybean (Glycine max) = assay: as above; conditions: for Plant response rating, Soybean: Postemergence; for Soybean plant response rating: postemergence, 62 g ai/ha
Procedure, shortened: as §1

[11] = system: waterhemp (common waterhemp, Amaranthus rudis); assay: as above; conditions: for Plant response rating, Waterhemp: Postemergence; for Waterhemp plant response rating: postemergence, 62 g ai/ha
Procedure, shortened: as §1

[12] = system: wheat (winter wheat, Triticum aestivum); assay: as above; conditions: for Plant response rating, Wheat: Postemergence; for Wheat plant response rating: postemergence, 62 g ai/ha
Procedure, shortened: as §1

kochia (Kochia scoparia) = assay: Test C greenhouse herbicide test, postemergence; conditions: for Plant response rating, Kochia: Postemergence; for Kochia plant response rating: postemergence, 62 g ai/ha
Procedure, shortened: (§2)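 Postemergence foliar treatment, 1- to 4-leaf stage (2–18 cm), peat/vermiculite medium; greenhouse 13–15 d; visual rating vs controls, 0 = no effect, 100 = complete control; dash = no result.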

[13] = system: oat, wild (wild oat, Avena fatua); assay: Test C greenhouse herbicide test, postemergence; conditions: for Plant response rating, Oat, Wild: Postemergence; for Oat, Wild plant response rating: postemergence, 62 g ai/ha
Procedure, shortened: as §2

[14] = Postemergence, 31 g ai/ha, 0 to 100 scale (0 no effect, 100 complete control)
[15] = Postemergence, 125 g ai/ha, scale 0 to 100, 0 is no effect, 100 is complete control
[16] = Postemergence, 250 g ai/ha, scale 0 to 100, 0 no effect, 100 complete control, 13 to 15 d
[17] = postemergence, 62 g ai/ha, scale 0 to 100, 0 no effect, 100 complete control
[18] = 125 g ai/ha, scale 0 to 100, 0 is no effect, 100 is complete control
[19] = 250 g ai/ha, scale 0 to 100, 0 no effect, 100 complete control, 13 to 15 d
[20] = scale 0 to 100, 0 no effect, 100 complete control

CC(=O)Oc1c(C#N)nn(C)c(=O)c1-c1c(C)ccc2ccccc12 [Compound 98]
5: Blackgrass plant response rating [2, 14] | Corn plant response rating (corn (Zea mays); [14]) | Johnsongrass plant response rating [5, 20]
85: Barnyardgrass plant response rating [1, 17] | Plant response rating, Ryegrass, Italian [10, 19]
45: Plant response rating, Crabgrass, Large [3, 18] | Ryegrass, Italian plant response rating [10, 20]
95: Foxtail, Giant plant response rating [4, 20] | Plant response rating, Oat, Wild [13, 18]
100: Plant response rating, Foxtail, Giant [4, 19] | Plant response rating, Lambsquarters [6, 18] | Plant response rating, Lambsquarters [6, 19] | Lambsquarters plant response rating [6, 20] | Plant response rating, Morningglory [7, 18] | Plant response rating, Morningglory [7, 19] | Morningglory plant response rating [7, 20] | Plant response rating, Pigweed [8, 18] | Plant response rating, Pigweed [8, 19] | Pigweed plant response rating [8, 20] | Plant response rating, Ragweed [9, 19] | Plant response rating, Waterhemp [11, 18] | Plant response rating, Waterhemp [11, 19] | Waterhemp plant response rating [11, 20] | Plant response rating, Oat, Wild [13, 19]
20: Kochia plant response rating (kochia (Kochia scoparia); [20])
50: Plant response rating, Blackgrass [2, 15]
80: Plant response rating, Kochia (kochia (Kochia scoparia); [19]) | Oat, Wild plant response rating [13, 20]
65: Plant response rating, Ryegrass, Italian [10, 18]
70: Plant response rating, Blackgrass [2, 16] | Plant response rating, Crabgrass, Large [3, 19]
25: Crabgrass, Large plant response rating [3, 20] | Plant response rating, Soybean (soybean (Glycine max); [18]) | Plant response rating, Soybean (soybean (Glycine max); [19])
30: Blackgrass plant response rating [2, 17] | Plant response rating, Wheat [12, 19]
0: Corn plant response rating (corn (Zea mays); [17])
15: Plant response rating, Corn (corn (Zea mays); [15]) | Plant response rating, Corn (corn (Zea mays); [16]) | Plant response rating, Wheat [12, 18]
98: Plant response rating, Barnyardgrass [1, 15] | Plant response rating, Barnyardgrass [1, 16] | Plant response rating, Foxtail, Giant [4, 18] | Plant response rating, Ragweed [9, 18] | Ragweed plant response rating [9, 20]
10: Plant response rating, Johnsongrass [5, 18] | Plant response rating, Johnsongrass [5, 19] | Soybean plant response rating (soybean (Glycine max); [20]) | Wheat plant response rating [12, 20]
60: Barnyardgrass plant response rating [1, 14] | Plant response rating, Kochia (kochia (Kochia scoparia); [18])

COc1nn(C)c(=O)c(-c2c(C)sc3ccc(Cl)cc23)c1O [Compound 100]
98: Plant response rating, Lambsquarters [6, 18] | Plant response rating, Lambsquarters [6, 19] | Plant response rating, Ragweed [9, 19] | Plant response rating, Waterhemp [11, 19]
15: Plant response rating, Crabgrass, Large [3, 19] | Crabgrass, Large plant response rating [3, 20]
95: Plant response rating, Ragweed [9, 18] | Ragweed plant response rating [9, 20] | Plant response rating, Ryegrass, Italian [10, 19] | Plant response rating, Waterhemp [11, 18] | Plant response rating, Kochia (kochia (Kochia scoparia); [18]) | Plant response rating, Kochia (kochia (Kochia scoparia); [19]) | Plant response rating, Oat, Wild [13, 19]
10: Barnyardgrass plant response rating [1, 14] | Plant response rating, Corn (corn (Zea mays); [16]) | Corn plant response rating (corn (Zea mays); [17]) | Plant response rating, Johnsongrass [5, 19]
85: Pigweed plant response rating [8, 20] | Plant response rating, Oat, Wild [13, 18]
0: Johnsongrass plant response rating [5, 20] | Plant response rating, Wheat [12, 18] | Wheat plant response rating [12, 20]
75: Plant response rating, Foxtail, Giant [4, 18]
90: Plant response rating, Foxtail, Giant [4, 19] | Lambsquarters plant response rating [6, 20] | Plant response rating, Ryegrass, Italian [10, 18] | Ryegrass, Italian plant response rating [10, 20] | Waterhemp plant response rating [11, 20] | Kochia plant response rating (kochia (Kochia scoparia); [20])
40: Plant response rating, Barnyardgrass [1, 16]
70: Oat, Wild plant response rating [13, 20]
25: Barnyardgrass plant response rating [1, 17] | Plant response rating, Blackgrass [2, 16] | Plant response rating, Crabgrass, Large [3, 18]
45: Foxtail, Giant plant response rating [4, 20]
100: Plant response rating, Morningglory [7, 18] | Plant response rating, Morningglory [7, 19] | Morningglory plant response rating [7, 20] | Plant response rating, Pigweed [8, 18] | Plant response rating, Pigweed [8, 19]
30: Plant response rating, Barnyardgrass [1, 15]
5: Blackgrass plant response rating [2, 14] | Plant response rating, Blackgrass [2, 15] | Blackgrass plant response rating [2, 17] | Corn plant response rating (corn (Zea mays); [14]) | Plant response rating, Corn (corn (Zea mays); [15]) | Plant response rating, Johnsongrass [5, 18] | Plant response rating, Soybean (soybean (Glycine max); [18]) | Plant response rating, Soybean (soybean (Glycine max); [19]) | Soybean plant response rating (soybean (Glycine max); [20]) | Plant response rating, Wheat [12, 19]
